For test [1], the target named is NMDA (N-methyl-D-aspartate) receptors. Description: Binding of 3H-5,7-dichlorokynurenic acid to rat cerebra membrane material. As to conditions: displacement of 3H-5,7-dichlorokynurenic acid, membrane material from rat cerebra, incubated on ice for 30 minutes. The protocol:
(§1) The pharmacological activity of the compounds I and I' according to the invention was investigated on membrane material isolated from rat cerebra. To do this, the membrane material was treated in the presence of the compounds according to the invention with the radio-labeled substances ^3 H-2-amino-3-hydroxy-5-methyl-4-isoxazolepropionic acid (^3 H-AMPA) and ^3 H-5,7-dichlorokynurenic acid, which bind to specific receptors (AMPA and NMDA (N-methyl-D-aspartate) receptors respectively). The radioactivity of the treated membranes was then measured by scintillation counting. The amounts of bound ^3 H-AMPA and ^3 H-5,7-dichlorokynurenic acid, or the amounts of these radiolabeled substances displaced in each case, can be determined from the bound radioactivity. The resulting dissociation constant KI (I=inhibitor), which is a measure of the displacement by the active substance according to the invention, was calculated by iterative non-linear regression analysis with the statistical analysis system (SAS) on an IBM computer, similar to the "Ligand" program of P. J. Munson and D. Rodbard (Analytical Biochem. 107, (1980) 220, Ligand: Versatile Computerized Approach for Characterization of Ligand Binding Systems).
2. Binding of ^3 H-5,7-dichlorokynurenic acid […]
For orientation: Displacement assays read how much labelled ligand stays bound in the presence of the test substance.

For test [2], the target named is AMPA receptors. Description: Binding of 3H-AMPA to rat cerebra membrane material. As to conditions: displacement of 3H-AMPA, membrane material from rat cerebra, incubated on ice for 60 minutes. The protocol:
as §1
1. Binding of ^3 H-2-amino-3-hydroxy-5-methyl-4-isoxazolepropionic acid (^3 H-AMPA) […]

As a reminder, the Ki is the dissociation constant of the complex between target and ligand, obtained from inhibition or displacement. Low values mean a stronger hold on the target, high ones a looser hold on the target.

Where only a bound is given, the exact number is not on record here.

`O=c1[nH]c2cc(-n3cccc3)c(C(F)(F)F)cc2[nH]c1=O` [Example 2, 6-(1-Pyrrolyl)-7-trifluoromethyl-2,3(1H,4H)-quinoxalinedione] registered a Ki in test [1] of less than 10 µM. `O=c1[nH]c2cc(Cl)c(-n3cccc3)cc2[nH]c1=O` [Example 1, 7-Chloro-6-(1-pyrrolyl)-2,3(1H,4H)-quinoxalinedione] came in with a Ki in test [2] of less than 10 µM.

These data come from patent publication US5852017A, “2,3(1H,4H)-quinoxalinediones” (BASF Aktiengesellschaft, priority 1992, dated 1998).
